Reference: ChEMBL document CHEMBL3301361, “Experimental in vitro DMPK and physicochemical data on a set of publicly disclosed compounds”
In brackets after ≈: the same amount, converted by molar mass.

Assay: physchem
Details: octan-1-ol/water, pH 7.4

SMILES	logD
CCC1(c2ccccc2)C(=O)NC(=O)NC1=O [PHENOBARBITAL]	0.05
O=C(N[C@H]1CN2CCC1CC2)c1ccc(Cl)cc1 [PNU-282987]	0.6
c1ccc2ncccc2c1 [QUINOLINE]	2.09
COCCCOc1ccnc(C[S+]([O-])c2nc3ccccc3[nH]2)c1C (configuration not stated) [RABEPRAZOLE]	-0.69
C[C@@H]1NC(C)(C)CO[C@@]1(O)c1cccc(Cl)c1 [RADAFAXINE]	1.69
C=C(C)[C@H]1Cc2c(ccc3c2O[C@@H]2COc4cc(OC)c(OC)cc4[C@@H]2C3=O)O1 [ROTENONE]	3.57
NC(=O)c1cn([C@@H]2O[C@H](CO)[C@@H](O)[C@H]2O)c2ncnc(N)c12 [SANGIVAMYCIN]	-0.87
NC(Cc1ccc(N(CCCl)CCCl)cc1)C(=O)O (configuration not stated) [SARCOLYSIN]	0.39
CC(C)CC(N(C)C)C1(c2ccc(Cl)cc2)CCC1 (configuration not stated) [SIBUTRAMINE]	3.6
O=C(Oc1ccc(Br)cc1)N1CCN2CCC1CC2 [SSR180711]	1.58
CC(=O)O[C@H]1CC[C@]2(C=O)[C@H]3CC[C@]4(C)[C@@H](C5=CC(=O)OC5)CC[C@]4(O)[C@@H]3CC[C@]2(O)C1 [STROPHANTHIDIN ACETATE]	0.64
CCN(CC)C(=O)N[C@H]1C[C@@H]2c3cccc4[nH]cc(c34)C[C@H]2N(C)C1 [TERGURIDE]	2.73
S=C(NC1CCCCC1)N1CCC(c2cnc[nH]2)CC1 [THIOPERAMIDE]	2.3
CCC(COC(=O)c1cc(OC)c(OC)c(OC)c1)(c1ccccc1)N(C)C (configuration not stated) [TRIMEBUTINE]	3.77
CC(C)[C@H](N)C(=O)OCCOCn1cnc2c(=O)[nH]c(N)nc21 [VALACYCLOVIR]	-1.3
CN1CCN(C(=O)OC2c3nccnc3C(=O)N2c2ccc(Cl)cn2)CC1 (configuration not stated) [ZOPICLONE]	1.1

Same assay, conditions: octan-1-ol/water, pH 7.4, LogD7.4

SMILES	logD
CC(=O)CCCCn1c(=O)c2c(ncn2C)n(C)c1=O [PENTOXIFYLLINE]	0.22
NCCCC(=O)OCCN1CCN(CCCN2c3ccccc3Sc3ccc(Cl)cc32)CC1 [PERPHENAZINE 4-AMINOBUTYRATE]	1.5
CN(c1ncccc1CNc1nc(Nc2ccc3c(c2)CC(=O)N3)ncc1C(F)(F)F)S(C)(=O)=O [PF-00562271]	2.63
OCCn1cc(-c2cnc3nnn(Cc4ccc5ncccc5c4)c3n2)cn1 [PF-04217903]	1.7
CC(C)CNCc1ccc(-c2ccccc2S(=O)(=O)N2CCCC2)cc1 [PF-04455242]	1.9
Nc1ccc(/N=N/c2ccccc2)c(N)n1 [PHENAZOPYRIDINE]	3.22
NNCCc1ccccc1 [PHENELZINE]	-0.01
CN1C(=O)CC(c2ccccc2)C1=O (configuration not stated) [PHENSUXIMIDE]	0.68
CN(C)CCOc1ccccc1Cc1ccccc1 [PHENYLTOLOXAMINE]	2.53
COc1ccc(C(=O)NCc2cccnc2)cc1C(=O)NCc1cccnc1 [PICOTAMIDE]	1.23
NS(=O)(=O)c1cc(C(=O)O)cc(N2CCCC2)c1Oc1ccccc1 [PIRETANIDE]	-0.94
CCCN[C@H]1CCc2nc(N)sc2C1 [PRAMIPEXOLE]	3.15
O=C(C1CCCCC1)N1CC(=O)N2CCc3ccccc3C2C1 (configuration not stated) [PRAZIQUANTEL]	2.43
CCCN(CCC)S(=O)(=O)c1ccc(C(=O)O)cc1 [PROBENECID]	0.03
CCN(CC)CCOC(=O)c1ccc(N)cc1 [PROCAINE]	0
CC(C)[N+](C)(CCOC(=O)C1c2ccccc2Oc2ccccc21)C(C)C [PROPANTHELINE]	0.2
O=c1c(O)cccc2cc(O)c(O)c(O)c12 [PURPUROGALLIN]	2.03
Cc1ncc(CO)c(CO)c1O [PYRIDOXINE]	-0.58
O=C(Nc1nnn[nH]1)c1cc(Oc2ccccc2)c2ccccn2c1=O [QUINOTOLAST]	0.67
CCC(=O)NCC[C@@H]1CCc2ccc3c(c21)CCO3 [RAMELTEON]	2.57
NC(Cc1cc(I)c(Oc2ccc(O)c(I)c2)c(I)c1)C(=O)O (configuration not stated) [RATHYRONINE]	0.97
Cc1ccc(COC(=O)N2CC[C@H](CNc3ncccn3)[C@H](F)C2)cc1 [RISLENEMDAZ]	3.21
CC(C)c1nc(CN(C)C(=O)N[C@H](C(=O)N[C@@H](Cc2ccccc2)C[C@H](O)[C@H](Cc2ccccc2)NC(=O)OCc2cncs2)C(C)C)cs1 [RITONAVIR]	4.3
CC[C@H]1OC(=O)[C@H](C)[C@@H](O[C@H]2C[C@@](C)(OC)[C@@H](O)[C@H](C)O2)[C@H](C)[C@@H](O[C@@H]2O[C@H](C)C[C@H](N(C)C)[C@H]2O)[C@](C)(O)C[C@@H](C)/C(=N\OCOCCOC)[C@H](C)[C@@H](O)[C@]1(C)O [ROXITHROMYCIN]	1.8
NC(=O)c1ccccc1O [SALICYLAMIDE]	1.09
O=C(O)c1ccc2c(c1)nc(Nc1cccc(Cl)c1)c1ccncc12 [SILMITASERTIB]	1.29

SMILES	logD
C[C@@H]1CN(c2c(F)c(N)c3c(=O)c(C(=O)O)cn(C4CC4)c3c2F)C[C@H](C)N1 [SPARFLOXACIN]	-0.15
COc1ncnc(NS(=O)(=O)c2ccc(N)cc2)c1OC [SULFADOXINE]	-0.73
Cc1ccnc(NS(=O)(=O)c2ccc(N)cc2)n1 [SULFAMERAZINE]	-0.51
COc1cc2c(N3CCN(C(=O)Nc4ccc(OC(C)C)cc4)CC3)ncnc2cc1OCCCN1CCCCC1 [TANDUTINIB]	2.6
CC(C)NCC(O)COc1nccs1 (configuration not stated) [TAZOLOL]	-0.97
Cn1nnc2c(C(N)=O)ncn2c1=O [TEMOZOLOMIDE]	-1.08
CN(C/C=C/C#CC(C)(C)C)Cc1cccc2ccccc12 [TERBINAFINE]	2.83
CCCCNc1ccc(C(=O)OCCN(C)C)cc1 [TETRACAINE]	2.11
c1ccc2[nH]c(-c3cscn3)nc2c1 [THIABENDAZOLE]	2.35
Clc1ccccc1CN1CCc2sccc2C1 [TICLOPIDINE]	3.46
Cc1cccc(C)c1NC(=O)C(C)N (configuration not stated) [TOCAINIDE]	-0.15
Cc1ccc(C(=O)c2cc(O)c(O)c([N+](=O)[O-])c2)cc1 [TOLCAPONE]	0.74
Cc1ccc(C(=O)C(C)CN2CCCCC2)cc1 (configuration not stated) [TOLPERISONE]	1.65
Cc1cccc(Nc2ccncc2S(=O)(=O)NC(=O)NC(C)C)c1 [TORSEMIDE]	0.3
OC(CCN1CCCCC1)(c1ccccc1)C1CCCCC1 (configuration not stated) [TRIHEXYPHENIDYL]	2.68
COc1cc(C(=O)NCc2ccc(OCCN(C)C)cc2)cc(OC)c1OC [TRIMETHOBENZAMIDE]	0.74
Cc1cc2cc3c(C)cc(=O)oc3c(C)c2o1 [TRIOXSALEN]	3.47
CN(C)CCN(Cc1ccccc1)c1ccccn1 [TRIPELENNAMINE]	1.28
N[C@@H](Cc1c[nH]c2ccccc12)C(=O)O [TRYPTOPHAN]	-1.08
COC[C@@H](c1ccc(C(F)(F)F)cc1)N1CCN(C2(C)CCN(C(=O)c3c(C)ncnc3C)CC2)C[C@@H]1C [VICRIVIROC]	2.7
CS(=O)(=O)c1ccc(C(=O)Nc2ccc(Cl)c(-c3ccccn3)c2)c(Cl)c1 [VISMODEGIB]	2.84
Fc1ccc(-c2ncn(C3CCNCC3)c2-c2ccncc2)cc1 [VK-19911]	0.3
COc1cccc([C@H](O)C2CCN(CCc3ccc(F)cc3)CC2)c1OC [VOLINANSERIN]	1.7
COC(=O)[C@@H]1[C@H]2C[C@H]3c4[nH]c5ccccc5c4CCN3C[C@@H]2CC[C@@H]1O [YOHIMBINE]	1.65
NS(=O)(=O)Cc1noc2ccccc12 [ZONISAMIDE]	0.55

Assay: physchem
Details: pH 7.4 buffer

SMILES	solubility thermodynamic
c1ccc2oc(-c3cncc(-c4cnn(C5CCNCC5)c4)c3)nc2c1	87.1 µM (≈ 30.1 µg/mL)
O=C(O)CCC[C@@H]1c2ccccc2C[C@H]1NC(=O)c1cc2cc(F)ccc2[nH]1	85.1 µM (≈ 32.4 µg/mL)
CNC(=O)[C@@H](NC(=O)[C@H](CC(C)C)[C@@H](Sc1ccccc1)C(=O)NO)C(C)(C)C	83.2 µM (≈ 35.2 µg/mL)
O=C(c1ccccc1)N1CCc2ccccc21	91.2 µM (≈ 20.4 µg/mL)
COc1cc(S(N)(=O)=O)c(OC)cc1N	93.3 µM (≈ 21.7 µg/mL)
C[C@@H](Cc1ccccc1)Oc1cc(OC2CCOCC2)cc(C(=O)Nc2ccc(C(=O)O)cn2)c1	105 µM (≈ 49.9 µg/mL)
COc1cc(OC2CNC2)ccc1Nc1ncc(Cl)c(-c2cnc3ccccn23)n1	81.3 µM (≈ 34.4 µg/mL)
COc1ccc(Nc2ncnc3cccc(OC4CCN(C)CC4)c23)cc1Cl	87.1 µM (≈ 34.7 µg/mL)
CNC(=O)c1ccc(CC(=O)N(C)C2CCN(Cc3ccc(C(F)(F)F)cc3)CC2)cc1	107 µM (≈ 48 µg/mL)
CN(C(=O)Cc1ccc(-n2cnnn2)cc1)[C@@H]1CCN(Cc2ccc(C(F)(F)F)nc2)C[C@@H]1F	95.5 µM (≈ 45.6 µg/mL)
N#CC1(NC(=O)[C@@H]2CCCC[C@H]2C(=O)N2CCN(c3nc(-c4ccccc4)cs3)CC2)CC1	95.5 µM (≈ 44.3 µg/mL)
O=C(Cc1cc(Nc2ncnc3cc(OCCCN4CCC[C@@H]4CO)ccc23)[nH]n1)Nc1cccc(F)c1	102 µM (≈ 53.2 µg/mL)
CCN(CCO)CCCOc1ccc2c(Nc3cc(CC(=O)Nc4cccc(F)c4F)[nH]n3)ncnc2c1	93.3 µM (≈ 49 µg/mL)
CC(C)c1ccc2[nH]c3c(c2c1)CN(C(=O)[C@@H]1CCCC[C@H]1C(=O)NC1(C#N)CC1)CC3	83.2 µM (≈ 36 µg/mL)
CN(C)C(=O)c1cc(-c2nc(N3CCOCC3)cc(C3(S(C)(=O)=O)CC3)n2)c2cc[nH]c2c1	100 µM (≈ 47 µg/mL)
Cc1cc(C)cc(-c2[nH]c3sc(C(C)(C)C(=O)N4C5CCC4CC5)cc3c2CCN2CCC(C(=O)N3CCCC(O)C3)CC2)c1 (configuration not stated)	87.1 µM (≈ 55 µg/mL)
C[C@@H](Oc1cccc2ncnc(Nc3ccc4c(cnn4Cc4ccccn4)c3)c12)C(=O)N1CCCC1	110 µM (≈ 54.1 µg/mL)
COc1cc2ncnc(Nc3cccc(Cl)c3F)c2cc1CN(C)C1CCNC1=O (configuration not stated)	89.1 µM (≈ 38.3 µg/mL)
CC(C)Oc1cc(O[C@@H](C)c2ccccc2)cc(C(=O)Nc2ccc(C(=O)O)cn2)c1	89.1 µM (≈ 37.5 µg/mL)
c1ccc(CSc2ncnc3[nH]cnc23)cc1	95.5 µM (≈ 23.1 µg/mL)
CC(=O)NC1CCN(C(=O)CN2CCN(CCc3c(-c4cc(C)cc(C)c4)[nH]c4sc(C(C)(C)C(=O)N5C6CCC5CC6)cc34)CC2)C1 (configuration not stated)	107 µM (≈ 72.1 µg/mL)
Cc1ccc(/C=C2\SC(=O)NC2=O)cc1	85.1 µM (≈ 18.7 µg/mL)
CN(C)CCNS(=O)(=O)c1ccc(Nc2nccc(-c3cnc4cccnn34)n2)cc1	93.3 µM (≈ 40.9 µg/mL)
Cn1nc(C(C)(C)C)cc1C(=O)N[C@@H](Cc1cccc(Cl)c1)C(=O)NCC#N	93.3 µM (≈ 37.5 µg/mL)
CCOC(=O)c1cc2ccccc2[nH]1	89.1 µM (≈ 16.9 µg/mL)
